Measured values: PubChem BioAssay (NCI)
“And” between values parts separate entries of the source, which are not always exact repeats. Identical values can stand only once.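 Dose response: 5 concentrations. Exposure: 48 h. Format: 96-well plates. Endpoint: linear interpolation; highest concentration if not reached. Here, GI50 denotes the concentration required for 50% inhibition of growth. TGI is the concentration that stops growth completely.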

Assays:
Experiment in all cases: NCI tumour cell line growth inhibition, 48 h
HT29 colon = system: HT29 colon
NCI-H226 lung = system: NCI-H226 lung
SF-268 CNS = system: SF-268 CNS
SF-295 CNS = system: SF-295 CNS
SK-MEL-2 melanoma = system: SK-MEL-2 melanoma
TK-10 renal = system: TK-10 renal
U251 CNS = system: U251 CNS
UO-31 renal = system: UO-31 renal
KM20L2 colon = system: KM20L2 colon
SNB-78 CNS = system: SNB-78 CNS

SMILES	GI50 (HT29 colon)	TGI (HT29 colon)	GI50 (NCI-H226 lung)	TGI (NCI-H226 lung)	GI50 (SF-268 CNS)	TGI (SF-268 CNS)	GI50 (SF-295 CNS)	TGI (SF-295 CNS)	GI50 (SK-MEL-2 melanoma)	TGI (SK-MEL-2 melanoma)	GI50 (TK-10 renal)	TGI (TK-10 renal)	GI50 (U251 CNS)	TGI (U251 CNS)	GI50 (UO-31 renal)	TGI (UO-31 renal)	TGI (KM20L2 colon) [µM]	TGI (SNB-78 CNS) [µM]	GI50 (KM20L2 colon) [µM]
O=C1/C(=C/c2ccc([N+](=O)[O-])o2)Oc2ccc(Cl)cc21	1.87 µM	3.98 µM	1.78 µM	3.97 µM	1.84 µM	3.77 µM	11.5 µM	49.1 µM	1.93 µM	3.83 µM	2.14 µM	3.85 µM	2.02 µM	4.52 µM	1.35 µM	3.87 µM	–	–	–
CNC(=O)c1cc(Oc2ccc(NC(=O)Nc3cc(C(C)(C)C)nn3-c3ccc4ncccc4c3)c(F)c2)ccn1	0.52 µM and 0.505 µM	3.65 µM and 5.07 µM	0.272 µM and 0.822 µM	7.24 µM and 4.26 µM	1.41 µM and 1.52 µM	5.16 µM and 4.49 µM	1.69 µM and 1.58 µM	8.26 µM and 5.62 µM	1.81 µM and 2.55 µM	4.34 µM and 5.45 µM	1.83 µM and 1.7 µM	6.79 µM and 6.93 µM	2.72 µM and 2.33 µM	8.87 µM and 7.22 µM	1.62 µM and 1.78 µM	7.7 µM and 6.39 µM	–	–	–
COc1cc(C(=O)n2nc(N)c3c(C)cc(C)nc32)cc(OC)c1OC	3.46 µM	> 100 µM	> 100 µM	> 100 µM	> 100 µM	> 100 µM	> 100 µM	> 100 µM	> 64.1 µM	> 100 µM	> 100 µM	> 100 µM	> 82.9 µM	> 100 µM	> 100 µM	> 100 µM	–	–	–
Cc1cc(N2CCOCC2)nc(NCc2cc(Nc3ccnc4cc(Cl)ccc34)ccc2F)n1	0.834 µM	2.24 µM	2.06 µM	4.31 µM	1.42 µM	3.02 µM	1.59 µM	3.03 µM	1.95 µM	3.61 µM	1.84 µM	3.4 µM	1.63 µM	3.12 µM	1.57 µM	3 µM	–	–	–
COc1cc(O)c(C(=O)/C=C/c2ccc(OC)c(OCc3ccccc3)c2)c(OC)c1	–	> 100 µM	–	> 100 µM	–	–	–	2.43 µM	–	> 100 µM	–	> 100 µM	–	> 100 µM	–	> 100 µM	> 100	6.52	–
CC(=O)[CH-]C(=O)c1ccccc1.CC(=O)[CH-]C(=O)c1ccccc1.CC(=O)[CH-]C(=O)c1ccccc1.[Ga+3]	20.7 µM	39.1 µM	16.8 µM	43.5 µM	11.6 µM	26.9 µM	23.3 µM	47.5 µM	10.8 µM	23.6 µM	24 µM	68.6 µM	12.7 µM	25.8 µM	26.7 µM	76.2 µM	42.6	–	18.5
N=C(CC(=O)Nc1ccccn1)c1ccccc1	–	> 100 µM	–	> 100 µM	–	> 100 µM	–	> 100 µM	–	> 100 µM	–	> 100 µM	–	> 100 µM	–	> 100 µM	–	–	–
CC(C)(C)[Si](C)(C)OC1[C@@H](COC(=O)NC(=O)CCl)O[C@@H](n2cnc3c(N)ncnc32)[C@H]1O[Si](C)(C)C(C)(C)C (stereo not given in full)	2.59 µM	8.53 µM	1.13 µM	2.3 µM	1.93 µM	5.23 µM	7.52 µM	14.3 µM	6.72 µM	13.8 µM	9.14 µM	16.1 µM	2.84 µM	7.91 µM	2.3 µM	5.88 µM	–	–	–
